Key:
SCCVII cells = assay: SCCVII squamous cell tumor challenge, tumor growth over time; format: in vivo, C3H/Hej mice
Experimental: FIGS. 1(A-C) is a set of graphs showing tumor growth over time. […] Tumor growth was measured over time. […] Tumors were palpable at day 3, which is when treatment with PBS, MET alone, TMV alone, or TMV + MET was initiated. The subsequent treatments were employed at days […]. […] Tumors were palpable at day 3, treatment of PBS control, MET alone, TMV alone, or TMV + MET was applied at days 10, 17, 24, 31, and 40. Tumor growth was measured over time. n=5 per group, two-way ANOVA with Tukey’s multiple comparison for statistical significance. For FIGS. 1(A-C), filled circle is PBS treatment group, filled square is MET alone treatment group, filled grey triangle is TMV alone treatment group, upside down triangle is MET + TMV treatment group. *p<0.05, **p<0.01, ***p<0.001.
In the same model (SCCVII), the TMV and MET treatment were delayed and given at Day 10 when the tumors were established (about 50 mm^2) (FIG. 1C).

[1] = tested on: immune cell subtypes in blood; assay: Immune cell subtypes in blood of 4T1-challenged mice; format: in vivo, mouse
Experimental: FIGS. 2(A-C) is a set of graphs showing percentages of T-cell subtypes in the blood of mice with 4T1 tumor. After 4T1 tumor challenge and treatment with water, TMV alone, MET alone, or TMV+MET, mouse blood samples were analyzed for percentage of CD3+ (FIG. 2A), CD4+ (FIG. 2B), and CD8+ (FIG. 2C) T-cells, in relation to CD45+ T cells. Filled circle is water treatment group, filled square is MET treatment group, filled grey triangle is TMV treatment group, upside down triangle is TMV + MET treatment group.
FIGS. 3(A-B) is a set of Fluorescence Activated Cell Sorting (FACS) plots showing presence of myeloid-derived suppressor cells (MDSCs) (FIG. 3A) and CD3+ cells (FIG. 3B) in the blood of 4T1 tumor-challenged mice.
FIG. 4 is a set of graphs showing amounts of MDSCs (top panel) and CD3+ T cells (bottom panel) in the blood of 4T1 tumor-challenged mice treated with water, TMV alone, MET alone, or TMV+MET. Filled circle is water treatment group, filled square is MET treatment group, filled grey triangle is TMV treatment group, upside down triangle is TMV + MET treatment group. **p<0.01.
The 4T1-challenged mice were further analyzed for immunological effects upon administration of TMV, MET, or both. Blood samples were obtained from mice, and samples were subjected to analysis to determine presence of immune cell subtypes.

4T1 tumor cells = assay: Lung metastasis in 4T1-challenged mice; format: in vivo, mouse
Experimental: FIGS. 6(A-B) is a set of graphs showing the amount of 4T1 tumor cells (FIG. 6A) and metastatic clones (FIG. 6B) obtained in the lungs of 4T1 tumor-challenged mice treated with water, TMV alone, MET alone, or TMV + MET. **p<0.01, ***p<0.001,
4T1-challenged mice were also analyzed for their metastatic potential. Upon sacrificing the mice, the lungs were analyzed for tumor colony forming units […] and overall total tumor cells (FIG. 6B).

[2] = tested on: oral squamous cell carcinoma MOC2 cells; assay: MOC2 head and neck cancer model, tumor growth; format: in vivo, C57BL/6J mice; conditions: MOC2-challenged mice, treatment from Day 3 (FIG. 9A, 9B)
Experimental: C57BL/6J mice were inoculated with 500,000 oral squamous cell carcinoma MOC2 cells s.c. in the hind flank. Tumors were palpable at day 3 post challenge. PBS, MET alone, TMV alone, or a combination of TMV + MET was employed at days 3, 8, 13, 18, and 25. Tumor growth was measured over time. […] Filled circle is PBS treatment group, filled square is MET alone treatment group, filled grey triangle is TMV alone treatment group, upside down triangle is MET + TMV treatment group. n=5 per group, two-way ANOVA with Tukey’s multiple comparison for statistical significance. *p<0.05, **p<0.01.
In the murine head and neck MOC2 cancer model, the TMV vaccine generated from MOC2 tumors was administered at Day 3, while MET was started at Day 3 and continued every other day until end point.

MOC2 cells = assay: MOC2 spontaneous lung metastasis; format: in vivo, C57BL/6J mice; conditions: lungs harvested after 25 days of tumor growth (FIG. 10)
Excerpt: C57BL/6J mice were inoculated with 500,000 MOC 2 cells s.c. in the hind flank. […] PBS, MET alone, TMV alone, or a combination of TMV + MET was employed at days 3, 8, 13, 18, and 25. Lungs were harvested and dispersed into single cell suspension after 25 days of tumor growth. Metastatic tumor cells were selected using G418 in vitro for 11-14 days and metastatic cells were quantified using a Nexelcom T4 cell counter.
In the murine head and neck MOC2 cancer model, the TMV vaccine generated from MOC2 tumors was administered at Day 3, while MET was started at Day 3 and continued every other day until end point. […] The lungs from these MOC2-challenged mice were harvested after 25 days of tumor growth and the number of metastatic cells was quantified after suspending the lungs into a single cell suspension (FIG. 10).

[3] = tested on: 4T1 mouse breast cancer cells; assay: Survival after surgical resection of 4T1 tumors; format: in vivo
Experimental: FIG. 8 is a graph showing survival of mice treated with PBS, TMV alone, MET alone, or TMV+MET after surgical resection of tumors. Mice were challenged 10 days before surgery with 4T1 tumor cells. After tumor establishment, tumors were resected on Day 0. Beginning on Day 5, 50 mg/kg metformin was administered. On Days 5 and 12, 4T1-derived TMVs were administered. […] Solid line is PBS treatment group, dashed line is MET alone, dotted line is TMV alone, dash and dot line is TMV and MET treatment.
Mice were divided into four groups of five mice per group, wherein each group was to be treated with either a PBS control, metformin (MET) alone, 4T1-derived TMV (as described in Example 1) or TMV+MET. Each mouse was challenged with 4T1 mouse breast cancer cells by subcutaneous injection and tumors were later surgically resected (Day 0). On Day 5, mice in the MET and TMV+MET groups were administered 50 mg/kg metformin in drinking water daily until Day 20. On Days 5 and 12, mice in the TMV and TMV+MET groups were administered a dose of TMVs formed from 4T1 cells. Mice were then analyzed for survival (FIG. 8).

CN(C)C(=N)NC(=N)N [MET, 3-(diaminomethylidene)-1,1-dimethylguanidine] was tested, and the “tumor growth, established tumors” value (SCCVII cells; SCCVII, treatment delayed to Day 10, tumors about 50 mm^2 (FIG. 1C)) was “did not have a significant decrease in growth”, the “tumor size (in words)” value (SCCVII cells; SCCVII-challenged mice, treatment from day 3 (FIG. 1B)) was “reduced tumor size” and the “amount of myeloid derived suppressor cells (MDSC) in blood samples” value ([1]; 4T1-challenged mice (FIG. 3A, FIG. 4 upper panel)) was “decreased”. The “amount of CD3+ T cells in the blood” value ([1]; 4T1-challenged mice, by week 2, vs PBS control (FIG. 2A)) was “increased”, the “amount of CD4+ T cells in the blood” value ([1]; 4T1-challenged mice, by week 2, vs PBS control (FIG. 2B)) was “increased” and the “amount of CD8+ T cells in the blood” value ([1]; 4T1-challenged mice, by week 2, vs PBS control (FIG. 2C)) was “increased”. For the same compound, the “lung metastasis: tumor colony forming units” value (4T1 tumor cells; lungs of 4T1-challenged mice at sacrifice (FIG. 6A)) was “not MET alone significantly reduced”, the “lung metastasis: overall total tumor cells” value (4T1 tumor cells; lungs of 4T1-challenged mice at sacrifice (FIG. 6B)) was “not MET alone significantly reduced” and the “MOC2 tumor growth / tumor area” value [2] was “no reduction in tumor growth”. For the same compound, the “number of metastatic MOC2 cells per lung” value (MOC2 cells) was “did not have a significant reduction”, the “mouse survival post-surgery (in words)” value ([3]; 4T1 tumors resected Day 0 (FIG. 8)) was “increased mouse survival” and the survival ([3]; at day 60 after resection of 4T1 tumors, 50 mg/kg metformin from Day 5 (FIG. 8)) was 0%.

— patent US20230181633A1, “METHODS OF TREATING CANCER USING A COMBINATION OF TUMOR MEMBRANE VESICLES AND METFORMIN” (METACLIPSE THERAPEUTICS CORPORATION, priority 2019, published 2023)
